Reference: patent US6673798B2, “PDGF receptor kinase inhibitory compounds, their preparation, purification and pharmaceutical compositions including same” (Yissum Research Development Company of the Hebrew …, priority 1999, dated 2004)

What was measured:
porcine SMC = experiment: Inhibition of SMC proliferation and recovery (cell count); type: cell-based; details: 10 μM
Experimental: Smooth muscle cells (SMC) were obtained under aseptic conditions from porcine abdominal aortas. Each artery was cut open and the endothelial surface mechanically scraped. The vessels were then cut into 2 mm^2 fragments which were placed in culture dishes with Dulbecco's modified Eagle's medium (DMEM) supplemented with 15% (v/v) fetal calf serum (FCS), 100 u/ml penicillin, 100 μg/ml streptomycin, and […]. The tissue fragments were then placed in an incubator at 37° C. under 9% CO2 atmosphere until SMC outgrowth was detected (typically within 3-7 days). […] For experiments testing the effect of tyrphostins on growth inhibition and recovery (see below), SMC from passages 1-3 were replated in 15 mm wells pretreated with 3 μg/cm^2 fibronectin (Biological Industries, Kibbutz Beit Haemek, Israel) at 15,000 cells/well.
Inhibition of cell proliferation and recovery: Monolayer cell growth inhibition and recovery experiments were repeated 3 or 4 times. Each experiment was performed in triplicate. Approximately 15,000 cells (SMC or PAEC) in 1 ml of culture medium supplemented with either 15% FCS (SMC) or 10% FCS (PAEC) were seeded on day 0 in 15 mm-wells precoated with fibronectin (SMC) or uncoated (PAEC). Cultures were treated with 10 μM of the following tyrphostin compounds: AG2033, AC2034, AG2043 and AG2044 (for SMC) or AG2033 (for PAEC) dissolved in 0.1% DMSO on days 1 and 3. On day 7, cultures were washed and the cells allowed to recover. Typically cells were counted on days 3 and 6 for inhibition, and on day 13 for recovery. The medium supplemented with serum (DMEM for SMC and Ham's F12 for PAEC) was changed every other day throughout the experiment.
Cells were grown in the presence of the specified tyrphostins and were counted on days 3, 6 and 13 in culture. On day 7 the cultures were washed and the cells allowed to recover. […] The inhibitory effect of all three compounds was reversible, and the cells resumed normal growth response as soon as the treatment with the tyrphostins was withdrawn.

PDGFβR = target: T1, PDGFβR (Mus musculus, UniProt P05622); experiment: PDGF-induced PDGFβR autophosphorylation in intact Swiss 3T3 cells (FIG. 8); type: cell-based; details: at 1 μM
T1 construct: A preparation of purified PDGFR from Swiss 3T3 cell membranes was used; endogenous in cells
T1 sequence (P05622 32-1098): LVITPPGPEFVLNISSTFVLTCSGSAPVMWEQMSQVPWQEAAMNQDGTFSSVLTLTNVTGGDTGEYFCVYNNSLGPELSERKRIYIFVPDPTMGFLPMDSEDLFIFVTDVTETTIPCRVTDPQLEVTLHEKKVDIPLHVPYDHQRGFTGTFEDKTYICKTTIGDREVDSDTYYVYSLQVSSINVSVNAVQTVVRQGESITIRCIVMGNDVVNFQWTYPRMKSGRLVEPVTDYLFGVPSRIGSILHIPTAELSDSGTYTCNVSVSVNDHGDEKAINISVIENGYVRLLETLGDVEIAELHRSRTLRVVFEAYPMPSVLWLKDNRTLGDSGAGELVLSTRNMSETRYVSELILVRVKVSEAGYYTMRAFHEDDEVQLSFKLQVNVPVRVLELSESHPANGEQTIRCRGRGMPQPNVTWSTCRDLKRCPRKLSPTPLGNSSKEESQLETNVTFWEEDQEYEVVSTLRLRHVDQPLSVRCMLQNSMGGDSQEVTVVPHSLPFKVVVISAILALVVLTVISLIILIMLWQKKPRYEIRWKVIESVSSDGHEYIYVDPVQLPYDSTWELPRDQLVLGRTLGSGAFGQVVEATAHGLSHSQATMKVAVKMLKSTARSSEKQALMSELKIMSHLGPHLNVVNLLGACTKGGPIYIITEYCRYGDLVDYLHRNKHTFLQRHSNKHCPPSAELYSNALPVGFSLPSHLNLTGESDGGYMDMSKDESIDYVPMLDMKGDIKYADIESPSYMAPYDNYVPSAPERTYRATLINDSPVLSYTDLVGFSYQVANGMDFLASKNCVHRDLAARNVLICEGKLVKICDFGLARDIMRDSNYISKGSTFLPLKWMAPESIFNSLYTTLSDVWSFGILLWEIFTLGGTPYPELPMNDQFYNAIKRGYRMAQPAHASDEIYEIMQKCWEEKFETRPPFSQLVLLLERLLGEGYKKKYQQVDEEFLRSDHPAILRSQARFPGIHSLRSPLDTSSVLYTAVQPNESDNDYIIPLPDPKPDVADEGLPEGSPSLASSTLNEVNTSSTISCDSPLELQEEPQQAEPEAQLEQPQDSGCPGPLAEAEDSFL
Experimental: Kinase reactions, using an isolated PDGFβR preparation, in the presence of 0.03-3 μM tyrphostin, were conducted, utilizing [γ-^32P]ATP as probe. Densitometric evaluation, relative to control lacking the tyrphostin inhibitor (100%), results in the percent autokinase activity, presented in Table 8 and in the dose-response curves for the purified transoid isomers AG2033 (FIG. 6) and AG2043 (FIG. 7). Further comparison between the resulting autoradiogrms for each pair of geometrical isomers AG2033 and AG2034 (upper panel); AG2043 and AG2044 (lower panel), for their inhibitory activity towards PDGF-induced PDGFβR autophosphorylation (concentration range: 0.1-10 μM) in intact cells is presented in FIG. 8. […] Similar potency relation exists between the AG2043 and AG2044 isomers.

PAEC/PDGFR cells [1] = experiment: Proliferation of PDGFβR transfected PAEC cells ([3H]thymidine incorporation); type: cell-based, porcine; details: Sus scrofa, read-out: IC50 (50% inhibition of proliferation) PDGFβR
Experimental: (§1) Porcine aortic endothelial cells (PAEC), stably transfected with either PDGF-receptor (PAEC/PDGFβR cells, kindly provided by Dr. L. Claesson-Welsh, Uppsala, Sweden) or VEGF-receptor KDR (PAEC/KDR), respectively, were used as previously described. Cells were routinely cultured in Ham's F-12 medium supplemented with geneticin (0.4 mg/ml) and 10% FCS.
(§2) Assessment of cell proliferation ([^3H]thymidine incorporation assay): PAEC/KDR and PAEC/PDGFR cells, grown in Ham's F12 medium containing 10% FCS were seeded sparsely in 12 well culture dishes. After 24 hours, cells were washed two times with Ham's F12 medium containing 1% FCS and incubated for additional 48 hours with one renewal of medium. Cells were incubated for 15 minute with different concentrations of AG2033 (0.1; 1 and 10 μM) or with the solvent DMSO alone, stimulated with 3 ng/ml VEGF or with 15 ng/ml PDGF-BB for 20 hours, followed by addition of 0.25 μCi of [^3H]-thymidine/ml (Amersham) for two hours. High molecular weight [^3H]-radioactivity was precipitated using 5% trichloroacetic acid at 4° C. for 30 minutes. After two washes with ice-cold H2O, [^3H]-radioactivity was solubilized in 1 M NaOH (400 μl/well) at room temperature for 8 minutes, neutralized by the addition of 2 M HCL (400 μl/well), and quantitated by liquid scintillation counting. […]

PAEC/KDR cells [2] = experiment: Proliferation of KDR transfected PAEC cells ([3H]thymidine incorporation); type: cell-based, porcine; details: Sus scrofa, read-out: IC50 (50% inhibition of proliferation) KDR
Experimental: as §1, §2

PAEC/PDGFR cells [3] = experiment: Migration of PDGFβR transfected PAEC cells toward PDGF-BB (Boyden chamber); type: cell-based, porcine; details: Sus scrofa, PDGF-BB 10 ng/ml, read-out: IC50 (50% inhibition of migration) PDGFβR
Experimental: (§3) Assessment of cell migration (Chemotaxis assay): The chemotactic response of HCASMC, PAEC/KDR and PAEC/PDGFR cells was assessed using the modified Boyden chamber (Neuro Probe, Inc.) and collagen-coated polycarbonate filters (Nucleopore) with pore diameters of 8 μm as previously described. Briefly, PAEC/KDR and PAEC/PDGFR cells were cultivated and assayed in Ham's F12 medium containing 10% FCS. HCASMC were cultivated in SmGM-2 (clonetics) and assayed in SmBM-WM containing 10% FCS and 0.1% BSA. To the medium in the lower part of the Boyden chamber, either VEGF or PDGF-BB (10 ng/ml, respectively) were added. AG2033 was added to both upper and lower chamber parts. Suspended cells were given 4 hours for migration, after a preincubation period of 15 minute in AG2033. The number of cells that migrated without PDGF-BB or VEGF stimulation was referred to as 100% migration (chemokinesis). The assay was performed in triplicate, and five medium-power fields were counted per well using a light microscope (Jenalab).
(§4) Evaluation of PDGFβR or KDR stably transfected PAEC cells migration toward the respective growth factors, PDGD-BB and VEGF (10 ng/ml, respectively), in the presence of the purified AG2033 isomer, was conducted in a Boyden chamber (see experimental section, above). […]

PAEC/KDR cells [4] = experiment: Migration of KDR transfected PAEC cells toward VEGF (Boyden chamber); type: cell-based, porcine; details: Sus scrofa, VEGF 10 ng/ml, read-out: IC50 (50% inhibition of migration) KDR
Experimental: as §3, §4

| inhibitory activity towards PDGF-induced PDGFβR autophosphorylation in intact cells (PDGFβR) | IC50 (PAEC/PDGFR cells [3]) [µM] | IC50 (PAEC/KDR cells [4]) [µM] | melting point [°C] | Compound | toxic effect on the cells (porcine SMC; SMC) | mean reduction in SMC count by day 3 (porcine SMC; compared to DMSO treated control cells) [%] | reversibility of the inhibitory effect on SMC proliferation (porcine SMC; cultures washed on day 7, recovery counted day 13) | IC50 (PAEC/PDGFR cells [1]) [µM] | IC50 (PAEC/KDR cells [2]) [µM] |
| --- | --- | --- | --- | --- | --- | --- | --- | --- | --- |
|  |  |  |  | Cc1nc2cc3nc(-c4cccs4)cnc3cc2n1C [AG2043, 1,2-dimethyl-6-(2-thiophene) imidazolo[5,4-g]quinoxaline] | without having a substantial toxic effect | 46 | completely reversible |  |  |
| marked inhibitory activity | 5 | > 10 | 275 | Cc1nc2cc3nc(-c4ccccc4)cnc3cc2n1C [AG2033, 1,2-dimethyl-6-phenyl imidazolo[5,4-g]quinoxaline] |  |  |  | 2.5 | > 10 |
